Experimental data published in ChEMBL document CHEMBL1201862, “PubChem BioAssay data set” (2004).
Activity calls are given as the source filed them.

Key:
[1] = molecular target: G-protein coupled receptor 55 (Homo sapiens, UniProt Q9Y2T6); experiment: selective activators of receptor GPR55 – imaging, U2OS cells, beta-arrestin-GFP redistribution, primary screen (AID 1961); format: functional
[2] = cAMP pathway inhibition in counterscreen cell line – TR-FRET cAMP detection, counter-screen for MC4R biased antagonist project, dose response (AID 602305); format: functional, cell-based;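 note: U2OS cells stimulated with forskolin near its EC80 as the cAMP inducer; potency is for inhibition of forskolin-stimulated cAMP signaling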
[3] = molecular target: T1, Replicative DNA helicase DnaB (Mycobacterium tuberculosis, UniProt P9WMR3); experiment: DnaB intein splicing inhibitors, dose response, biochemical, cell-free fluorescence (AID 449749); format: functional
T1 sequence (P9WMR3 whole entry): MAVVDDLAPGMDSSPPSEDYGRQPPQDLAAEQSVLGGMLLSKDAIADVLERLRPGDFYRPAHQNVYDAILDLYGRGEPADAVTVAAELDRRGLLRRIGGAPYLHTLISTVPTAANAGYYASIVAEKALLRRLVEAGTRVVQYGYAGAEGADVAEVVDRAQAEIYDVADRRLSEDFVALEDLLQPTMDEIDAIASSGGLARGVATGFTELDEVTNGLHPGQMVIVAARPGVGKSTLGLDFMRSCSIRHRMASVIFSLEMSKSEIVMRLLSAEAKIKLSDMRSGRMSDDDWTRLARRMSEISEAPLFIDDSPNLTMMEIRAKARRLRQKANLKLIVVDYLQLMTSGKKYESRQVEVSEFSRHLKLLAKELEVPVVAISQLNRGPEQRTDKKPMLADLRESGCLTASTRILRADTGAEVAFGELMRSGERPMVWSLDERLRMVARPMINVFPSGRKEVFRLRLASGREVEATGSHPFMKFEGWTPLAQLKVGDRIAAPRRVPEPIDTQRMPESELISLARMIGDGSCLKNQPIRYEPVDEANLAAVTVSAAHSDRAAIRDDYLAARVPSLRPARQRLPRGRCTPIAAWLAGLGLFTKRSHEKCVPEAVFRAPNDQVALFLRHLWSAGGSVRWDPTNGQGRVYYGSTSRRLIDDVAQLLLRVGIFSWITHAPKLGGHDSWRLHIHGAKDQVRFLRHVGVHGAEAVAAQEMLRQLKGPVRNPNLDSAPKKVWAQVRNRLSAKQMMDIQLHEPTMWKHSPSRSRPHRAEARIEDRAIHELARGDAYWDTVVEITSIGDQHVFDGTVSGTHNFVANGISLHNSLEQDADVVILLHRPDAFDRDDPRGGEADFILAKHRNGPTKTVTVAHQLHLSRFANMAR

[4] = Intein inhibitors as potential Tuberculosis drugs, a cytotoxicity screen. [Related pubchem assays (depositor defined):AID2221, AID2223, AID434968, AID435010, AID449749, AID449750, AID489010]; format: functional
Melanocortin receptor 4 = Melanocortin receptor 4 (Homo sapiens, UniProt P32245); experiment: inhibitors of MC4R cAMP signaling – cell-based, TR-FRET, biased antagonists, dose response (AID 602298); format: functional;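 note: antagonist potency against agonist-stimulated cAMP production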
Protein RecA = molecular target: T2, Protein RecA (Mycobacterium tuberculosis, UniProt P9WHJ3); experiment: Fluorescence Cell-Free Homogeneous Dose Retest to Identify Inhibitors of RecA-Intein Splicing Activity. [Related pubchem assays (depositor defined):AID2097, AID2223, AID489010, AID492950]; format: functional
T2 sequence (P9WHJ3 whole entry): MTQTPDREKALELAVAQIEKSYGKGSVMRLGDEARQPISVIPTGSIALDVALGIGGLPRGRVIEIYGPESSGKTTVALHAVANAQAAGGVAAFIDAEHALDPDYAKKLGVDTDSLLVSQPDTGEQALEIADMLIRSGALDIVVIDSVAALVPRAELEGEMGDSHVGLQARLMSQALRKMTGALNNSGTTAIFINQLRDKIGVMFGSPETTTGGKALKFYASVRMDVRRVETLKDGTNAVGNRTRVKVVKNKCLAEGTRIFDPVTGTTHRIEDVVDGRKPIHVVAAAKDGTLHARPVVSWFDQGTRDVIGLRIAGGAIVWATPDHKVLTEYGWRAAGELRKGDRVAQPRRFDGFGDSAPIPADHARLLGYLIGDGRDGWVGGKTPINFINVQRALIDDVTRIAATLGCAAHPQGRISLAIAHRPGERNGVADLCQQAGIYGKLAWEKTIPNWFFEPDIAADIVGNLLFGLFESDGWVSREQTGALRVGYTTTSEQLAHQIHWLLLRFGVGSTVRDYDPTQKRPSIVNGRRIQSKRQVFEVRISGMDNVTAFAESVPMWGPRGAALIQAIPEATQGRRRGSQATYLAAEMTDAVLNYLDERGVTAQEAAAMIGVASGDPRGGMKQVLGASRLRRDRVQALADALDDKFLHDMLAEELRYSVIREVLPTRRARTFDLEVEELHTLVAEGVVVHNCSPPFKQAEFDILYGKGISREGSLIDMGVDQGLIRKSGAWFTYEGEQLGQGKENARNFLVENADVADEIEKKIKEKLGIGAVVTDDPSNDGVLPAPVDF

[5] = molecular target: Glycogen synthase kinase-3 beta (Homo sapiens, UniProt P49841); format: functional;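 note: value comes from a broad kinome profiling panel, with GSK3B as the panel member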
Sequence of Glycogen synthase kinase-3 beta (P49841 whole entry): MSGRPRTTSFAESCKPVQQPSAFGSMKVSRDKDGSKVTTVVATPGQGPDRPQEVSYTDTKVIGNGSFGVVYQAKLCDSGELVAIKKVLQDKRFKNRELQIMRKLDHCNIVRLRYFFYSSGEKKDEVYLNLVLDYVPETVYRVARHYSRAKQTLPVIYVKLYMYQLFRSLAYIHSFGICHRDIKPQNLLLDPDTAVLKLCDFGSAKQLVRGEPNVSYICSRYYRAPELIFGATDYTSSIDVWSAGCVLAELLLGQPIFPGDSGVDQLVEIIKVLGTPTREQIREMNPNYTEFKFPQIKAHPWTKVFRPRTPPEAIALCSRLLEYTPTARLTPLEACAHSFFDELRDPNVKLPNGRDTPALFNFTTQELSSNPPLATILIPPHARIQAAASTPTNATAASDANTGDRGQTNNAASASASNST

[6] = molecular target: Serine/threonine-protein kinase pim-1 (Homo sapiens, UniProt P11309); format: functional
[7] = molecular target: Cell division cycle 7-related protein kinase (Homo sapiens, UniProt O00311); format: functional;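 note: value obtained from a kinome-wide kinase panel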
Sequence of Cell division cycle 7-related protein kinase (O00311 whole entry): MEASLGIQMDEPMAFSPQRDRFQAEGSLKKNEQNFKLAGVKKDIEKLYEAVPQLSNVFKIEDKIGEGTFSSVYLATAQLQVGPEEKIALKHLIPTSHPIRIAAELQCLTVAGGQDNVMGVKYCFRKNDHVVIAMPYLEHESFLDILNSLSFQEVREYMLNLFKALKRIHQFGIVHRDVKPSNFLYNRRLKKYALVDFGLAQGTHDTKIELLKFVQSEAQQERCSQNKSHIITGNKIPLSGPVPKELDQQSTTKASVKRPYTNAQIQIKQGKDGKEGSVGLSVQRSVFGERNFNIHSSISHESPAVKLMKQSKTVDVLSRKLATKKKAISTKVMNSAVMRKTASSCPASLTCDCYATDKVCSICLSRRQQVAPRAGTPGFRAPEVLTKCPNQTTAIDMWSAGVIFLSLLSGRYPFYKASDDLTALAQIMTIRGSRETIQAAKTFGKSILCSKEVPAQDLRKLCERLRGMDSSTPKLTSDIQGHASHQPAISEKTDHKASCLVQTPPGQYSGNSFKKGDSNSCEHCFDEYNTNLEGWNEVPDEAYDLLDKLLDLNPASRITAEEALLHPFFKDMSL

[8] = molecular target: Homeodomain-interacting protein kinase 2 (Homo sapiens, UniProt Q9H2X6); format: functional;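 note: measured within a kinome-wide kinase profiling panel, HIPK2 being one panel member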
[9] = molecular target: Mitogen-activated protein kinase kinase kinase kinase 4 (Homo sapiens, UniProt O95819); format: functional
[10] = molecular target: Interleukin-1 receptor-associated kinase 4 (Homo sapiens, UniProt Q9NWZ3); format: functional
Sequence of Interleukin-1 receptor-associated kinase 4 (Q9NWZ3 whole entry): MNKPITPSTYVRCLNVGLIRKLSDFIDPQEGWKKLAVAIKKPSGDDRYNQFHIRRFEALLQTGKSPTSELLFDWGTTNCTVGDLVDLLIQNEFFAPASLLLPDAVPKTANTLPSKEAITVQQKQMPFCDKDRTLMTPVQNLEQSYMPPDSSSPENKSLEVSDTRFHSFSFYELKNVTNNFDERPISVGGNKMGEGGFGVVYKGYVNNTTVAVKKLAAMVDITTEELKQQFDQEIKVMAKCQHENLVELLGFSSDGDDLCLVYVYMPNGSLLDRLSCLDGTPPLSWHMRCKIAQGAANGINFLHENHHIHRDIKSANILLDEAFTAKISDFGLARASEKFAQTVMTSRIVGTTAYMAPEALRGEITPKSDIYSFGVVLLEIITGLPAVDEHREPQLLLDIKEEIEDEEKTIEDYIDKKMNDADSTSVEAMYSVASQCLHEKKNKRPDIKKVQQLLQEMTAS

[11] = molecular target: cAMP-dependent protein kinase catalytic subunit alpha (Homo sapiens, UniProt P17612); format: functional
Orexin receptor type 2 [12] = molecular target: T3, Orexin receptor type 2 (Homo sapiens, UniProt O43614); experiment: Counterscreen assay for antagonists of the orexin 1 receptor (OX1R; HCRTR1): Homogeneous Time Resolved Fluorescence (HTRF)-based cell-based dose response assay for antagonists of the orexin 2 receptor (OX2R; HCRTR2), run by assay provider.; format: functional
T3 sequence (O43614 whole entry): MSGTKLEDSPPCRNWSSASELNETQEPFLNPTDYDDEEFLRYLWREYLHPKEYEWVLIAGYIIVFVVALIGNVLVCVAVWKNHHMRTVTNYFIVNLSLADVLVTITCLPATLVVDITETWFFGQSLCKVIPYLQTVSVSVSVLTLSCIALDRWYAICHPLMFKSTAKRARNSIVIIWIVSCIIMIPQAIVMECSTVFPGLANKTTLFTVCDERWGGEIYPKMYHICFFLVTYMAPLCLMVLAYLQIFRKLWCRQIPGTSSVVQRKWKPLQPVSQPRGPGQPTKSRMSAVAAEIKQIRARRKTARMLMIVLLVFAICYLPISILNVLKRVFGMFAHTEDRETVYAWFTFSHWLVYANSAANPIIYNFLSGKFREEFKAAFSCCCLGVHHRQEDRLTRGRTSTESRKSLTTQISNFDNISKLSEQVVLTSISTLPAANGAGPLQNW

[13] = molecular target: T4, Orexin/Hypocretin receptor type 1 (Homo sapiens, UniProt O43613); experiment: (§1) Fluorescence-based cell-based high throughput dose response assay for antagonists of the orexin 1 receptor (OX1R; HCRTR1). [Related pubchem assays (depositor defined):AID434989, AID435008, AID463079, AID485270, AID492963, AID492964, AID492965, AID493232, AID504717, AID504718]; format: functional
T4 sequence (O43613 whole entry): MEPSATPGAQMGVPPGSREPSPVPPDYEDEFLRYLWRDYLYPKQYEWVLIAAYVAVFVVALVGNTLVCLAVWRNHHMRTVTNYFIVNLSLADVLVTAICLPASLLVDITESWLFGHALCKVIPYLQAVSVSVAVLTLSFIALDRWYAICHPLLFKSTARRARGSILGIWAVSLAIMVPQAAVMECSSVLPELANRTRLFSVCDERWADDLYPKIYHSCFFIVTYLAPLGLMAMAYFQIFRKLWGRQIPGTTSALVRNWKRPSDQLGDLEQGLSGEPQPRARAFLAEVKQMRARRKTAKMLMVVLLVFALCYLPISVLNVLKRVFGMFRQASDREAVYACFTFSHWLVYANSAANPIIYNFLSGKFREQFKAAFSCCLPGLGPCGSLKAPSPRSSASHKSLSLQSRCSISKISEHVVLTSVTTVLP

CHO-K1 = experiment: (§2) Counterscreen for antagonists of the orexin 1 receptor (OX1R; HCRTR1): Homogeneous time resolved fluorescence (HTRF)-based cell-based dose response assay to identify antagonists of the parental CHO-K1 cell line. [Related pubchem assays (depositor defined):AID434989, AID435008, AID463079, AID485270, AID492963, AID492964, AID492965, AID493232, AID504699, AID504701]; format: functional; conditions: Cricetulus griseus
Orexin receptor type 2 [14] = molecular target: T3, Orexin receptor type 2; experiment: Counterscreen assay for antagonists of the orexin 1 receptor (OX1R; HCRTR1): Fluorescence-based cell-based dose response assay for antagonists of the orexin 2 receptor (OX2R; HCRTR2), run by assay provider.; format: functional
[15] = as §2, with “Fluorescence-based” for “Homogeneous time resolved fluorescence (HTRF)-based”, “cell-based high throughput” for “cell-based”, “CHO” for “CHO-K1”; format: functional
[16] = molecular target: T4, Orexin/Hypocretin receptor type 1; experiment: as §1, with “Homogeneous Time Resolved Fluorescence (HTRF)-based” for “Fluorescence-based”; format: functional
[17] = molecular target: Mitogen-activated protein kinase 9 (Homo sapiens, UniProt P45984); format: functional;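 note: value from a kinome panel profiling assay, MAPK9 panel entry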
Sequence of Mitogen-activated protein kinase 9 (P45984 whole entry): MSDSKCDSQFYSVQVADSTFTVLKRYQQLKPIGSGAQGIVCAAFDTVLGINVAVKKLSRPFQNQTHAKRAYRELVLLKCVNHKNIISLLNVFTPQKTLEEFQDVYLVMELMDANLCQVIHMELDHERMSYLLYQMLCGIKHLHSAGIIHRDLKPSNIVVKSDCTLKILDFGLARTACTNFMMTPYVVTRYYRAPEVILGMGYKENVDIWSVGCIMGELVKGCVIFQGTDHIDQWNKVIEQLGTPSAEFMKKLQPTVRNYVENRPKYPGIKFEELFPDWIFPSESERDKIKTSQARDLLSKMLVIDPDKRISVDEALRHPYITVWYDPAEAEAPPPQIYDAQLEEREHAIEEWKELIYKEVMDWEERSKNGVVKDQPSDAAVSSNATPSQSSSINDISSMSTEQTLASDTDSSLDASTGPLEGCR

Aurora kinase A = Aurora kinase A (Homo sapiens, UniProt O14965); format: functional;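 note: value from the Navigating the Kinome kinase panel profiling, panel entry STK6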
Sequence of Aurora kinase A (O14965 whole entry): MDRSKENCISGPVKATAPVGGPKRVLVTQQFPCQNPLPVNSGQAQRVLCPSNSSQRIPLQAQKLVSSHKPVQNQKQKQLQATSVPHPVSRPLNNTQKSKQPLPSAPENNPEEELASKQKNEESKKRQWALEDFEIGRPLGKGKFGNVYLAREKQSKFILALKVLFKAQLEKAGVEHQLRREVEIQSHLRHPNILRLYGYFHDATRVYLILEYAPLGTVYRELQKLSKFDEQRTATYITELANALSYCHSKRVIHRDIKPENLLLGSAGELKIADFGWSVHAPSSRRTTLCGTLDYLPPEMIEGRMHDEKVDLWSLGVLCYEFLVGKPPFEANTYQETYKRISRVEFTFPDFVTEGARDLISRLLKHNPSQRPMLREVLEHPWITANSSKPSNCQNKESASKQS

Aurora kinase B = Aurora kinase B (Homo sapiens, UniProt Q96GD4); format: functional
Sequence of Aurora kinase B (Q96GD4 whole entry): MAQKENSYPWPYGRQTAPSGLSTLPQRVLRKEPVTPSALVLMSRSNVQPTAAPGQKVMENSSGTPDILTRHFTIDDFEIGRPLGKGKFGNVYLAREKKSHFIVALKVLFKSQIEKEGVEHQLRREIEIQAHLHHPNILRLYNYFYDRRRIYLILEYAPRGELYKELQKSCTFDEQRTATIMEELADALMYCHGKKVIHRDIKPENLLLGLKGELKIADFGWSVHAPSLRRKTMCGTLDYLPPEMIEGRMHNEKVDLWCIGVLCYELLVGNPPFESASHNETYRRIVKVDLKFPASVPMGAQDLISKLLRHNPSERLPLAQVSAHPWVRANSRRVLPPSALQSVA

[18] = molecular target: Vascular endothelial growth factor receptor 2 (Homo sapiens, UniProt P35968); format: functional
[19] = molecular target: Sphingosine 1-phosphate receptor 4 (Homo sapiens, UniProt O95977); experiment: Late-stage fluorescence-based dose-response cell-based counterscreen assay to identify agonists of the Sphingosine 1-Phosphate Receptor 3 (S1P3): Sphingosine 1-Phosphate Receptor 4 (S1P4) agonist assay.; format: functional
[20] = molecular target: Sphingosine 1-phosphate receptor 2 (Homo sapiens, UniProt O95136); experiment: Late-stage fluorescence-based dose-response cell-based counterscreen assay to identify agonists of the Sphingosine 1-Phosphate Receptor 3 (S1P3): Sphingosine 1-Phosphate Receptor 2 (S1P2) agonist assay.; format: functional
[21] = molecular target: Serine/threonine-protein kinase D3 (Homo sapiens, UniProt O94806); format: functional;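 note: determined within a kinase panel screen, with PRKCN as the panel member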
Sequence of Serine/threonine-protein kinase D3 (O94806 whole entry): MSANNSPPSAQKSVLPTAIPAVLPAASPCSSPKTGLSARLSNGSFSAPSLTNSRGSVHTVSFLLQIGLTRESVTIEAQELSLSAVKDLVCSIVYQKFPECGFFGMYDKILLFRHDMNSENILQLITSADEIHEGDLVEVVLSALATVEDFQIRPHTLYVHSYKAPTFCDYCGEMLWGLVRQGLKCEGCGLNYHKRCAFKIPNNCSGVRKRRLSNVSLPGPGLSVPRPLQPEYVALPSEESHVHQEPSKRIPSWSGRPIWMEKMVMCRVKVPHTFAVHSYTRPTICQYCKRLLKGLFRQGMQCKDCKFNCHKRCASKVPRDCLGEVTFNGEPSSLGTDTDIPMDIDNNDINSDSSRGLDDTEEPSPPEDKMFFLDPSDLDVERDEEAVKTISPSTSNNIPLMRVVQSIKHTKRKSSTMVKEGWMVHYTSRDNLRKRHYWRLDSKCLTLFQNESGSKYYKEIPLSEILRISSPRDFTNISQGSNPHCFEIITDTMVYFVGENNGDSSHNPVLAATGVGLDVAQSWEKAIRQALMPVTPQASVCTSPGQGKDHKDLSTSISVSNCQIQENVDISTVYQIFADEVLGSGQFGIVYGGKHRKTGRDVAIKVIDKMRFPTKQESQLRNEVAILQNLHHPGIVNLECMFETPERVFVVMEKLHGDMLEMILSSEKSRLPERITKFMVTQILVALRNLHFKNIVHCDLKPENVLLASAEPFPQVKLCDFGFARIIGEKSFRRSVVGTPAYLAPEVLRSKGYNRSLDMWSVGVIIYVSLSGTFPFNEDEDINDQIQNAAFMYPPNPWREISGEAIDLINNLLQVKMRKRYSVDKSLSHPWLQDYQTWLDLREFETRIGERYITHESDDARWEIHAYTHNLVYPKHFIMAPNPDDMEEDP

[22] = molecular target: Mitogen-activated protein kinase 8 (Homo sapiens, UniProt P45983); format: functional;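 note: value comes from one member of a kinome-wide kinase profiling panel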
Sequence of Mitogen-activated protein kinase 8 (P45983 whole entry): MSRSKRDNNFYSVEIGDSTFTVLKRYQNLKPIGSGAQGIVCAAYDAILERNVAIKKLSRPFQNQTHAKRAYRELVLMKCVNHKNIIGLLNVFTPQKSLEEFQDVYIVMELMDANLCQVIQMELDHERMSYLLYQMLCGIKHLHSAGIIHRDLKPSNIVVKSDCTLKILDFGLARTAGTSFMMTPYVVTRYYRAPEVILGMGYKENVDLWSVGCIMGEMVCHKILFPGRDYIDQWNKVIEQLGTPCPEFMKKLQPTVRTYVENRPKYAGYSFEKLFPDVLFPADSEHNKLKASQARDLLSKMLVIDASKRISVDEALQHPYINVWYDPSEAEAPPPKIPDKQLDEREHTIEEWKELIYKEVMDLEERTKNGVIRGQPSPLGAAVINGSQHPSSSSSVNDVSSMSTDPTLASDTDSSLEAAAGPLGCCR
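Throughout, for CC50: cells exposed to compound for 72 hours before luminescence readout.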

Sequence of G-protein coupled receptor 55 (Q9Y2T6 whole entry): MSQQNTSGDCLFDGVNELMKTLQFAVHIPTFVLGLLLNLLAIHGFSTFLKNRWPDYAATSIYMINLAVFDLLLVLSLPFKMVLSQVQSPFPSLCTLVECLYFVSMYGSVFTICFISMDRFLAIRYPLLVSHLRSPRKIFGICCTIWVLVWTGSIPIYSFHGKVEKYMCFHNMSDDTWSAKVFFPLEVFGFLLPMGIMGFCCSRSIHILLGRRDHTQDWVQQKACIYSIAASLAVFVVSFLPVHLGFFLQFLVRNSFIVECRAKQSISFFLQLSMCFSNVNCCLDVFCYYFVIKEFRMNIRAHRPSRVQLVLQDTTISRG

SMILES: Cc1ccc2c(c1)c1c3n2CCN(C(=O)CCl)C3CCC1 (configuration not stated)
- EC50 [1]: > 32 µM (inactive)
- IC50 [2]: > 64.6 µM (inactive)
- AC50 [3]: 2.05 µM (active)
- CC50 [4]: 24.7 µM (active)
- IC50 (Melanocortin receptor 4): > 64.6 µM (inactive)
- EC50 (Protein RecA): 1.19 µM (active)

SMILES: Cc1n[nH]c2ccc(-c3cncc(OCCNS(C)(=O)=O)c3)cc12
- Ki [5]: 1 µM (active)
- Ki [6]: 5.01 µM (active)
- Ki [7]: 63.1 nM (active)
- Ki [8]: 1 µM (active)
- Ki [9]: 79.4 nM (active)
- Ki [10]: 3.98 µM (active)
- Ki [11]: 6.31 µM (active)

SMILES: O=C(C1CCCN1S(=O)(=O)c1cccc2cccnc12)N1CCn2c1nc1ccccc12 (configuration not stated)
- IC50 (Orexin receptor type 2 [12]): 9.68 µM (active)
- IC50 [13]: 3.36 µM (active)
- IC50 (CHO-K1): > 66.2 µM (inactive)
- IC50 (Orexin receptor type 2 [14]): > 88.8 µM (inactive)
- IC50 [15]: > 49.7 µM (inactive)
- IC50 [16]: 153 nM (active)

SMILES: CC(C)(C)c1cc(NC(=O)c2cc3ccccc3s2)n(-c2cccc(OCC(=O)O)c2)n1
- Ki [17]: 2 µM (active)

SMILES: O=S(=O)(Nc1ccc2c(c1)C(=NO)c1ccccc1-2)c1ccccc1F
- Ki (Aurora kinase A): 794 nM (active)
- Ki (Aurora kinase B): 20 nM (active)
- Ki [18]: 794 nM (active)

SMILES: CCN(CC)C(=O)c1cc(C2CC2)on1
- EC50 [19]: > 50 µM (inactive)
- EC50 [20]: > 50 µM (inactive)

SMILES: CCOc1nc(NC(=O)C(C)C)cc(N)c1C#N
- Ki [21]: 7.94 µM (active)
- Ki [22]: 1.26 µM (active)
